Source: patent US7659299B2, “Compounds inhibiting the binding of sap for treating osteoarthritis” (Pentraxin Therapeutics Limited, priority 2003, dated 2010)
pKd: −log10 of the molar value. Where “and” joins values, the source holds several entries; their conditions need not be identical. Equal entries are not always repeated.

Experiments:
SAP [1] = target: T1, SAP (Homo sapiens, UniProt P02743); assay: Isothermal calorimetry: dissociation constants between SAP and compounds; format: binding; settings: for pKd: replicate measurements, read-out: Kd in micromoles per liter (replicate measurements)
Description: Surface plasmon resonance (SPR) is a low throughput but powerfully informative method to identify compounds that are bound by, or themselves bind to SAP, either in a calcium dependent fashion or independently of calcium, for the purposes of the present invention. For example, low molecular weight compounds that inhibit binding of SAP to its macromolecular ligands, including target ligands relevant to the present invention, can be detected by their effect on the signal generated by fluid phase SAP binding to ligand immobilised on the solid phase (Example A). Furthermore, when SAP itself is immobilised on the solid phase in an SPR instrument, the interaction with it of test molecules provided in the fluid phase generates a signal that can be detected and quantified. Purified SAP immobilized within an SPR instrument gives a quantifiable signal when it is exposed to another molecule that forms a complex with the SAP, and this is distinct from the absence of such a signal if no complex is formed. […] Another low throughput but powerful direct method is isothermal calorimetry that measures the heat of interaction in solution between SAP and test compounds according to the present invention. The binding affinity can be measured precisely as a guide to potential efficacy. Typical results by this method for the dissociation constants, Kd, between SAP and various compounds are as follows: […]

SAP [2] = target: T1, SAP; assay: Inhibition of binding of 125I radiolabelled SAP to Neisseria meningitidis immobilized in microtitre plates; parameters: 5 μl of radiolabelled SAP in TN; from tissue; settings: for inhibition at 20 µM: compound 20 μM; for inhibition at 20 µM / inhibition at 2000 µM / inhibition at 0.2 µM / inhibition at 2 µM / inhibition at 200 µM: read-out: Percent inhibition of binding of radiolabelled SAP to immobilized Neisseria meningitidis; for inhibition at 2000 µM: compound 2 mM; for Inhibition of binding of SAP to meningococci, in words: summary of Table 1; for inhibition at 0.2 µM: compound 200 nM; for inhibition at 2 µM: compound 2 μM; for inhibition at 200 µM: compound 200 μM
Method: A suspension of heat killed Neisseria meningitidis at 1×10^8 organisms per ml in PBS was dispensed to polystyrene microtitre plates at 50 μl volumes per well, and left overnight at 4° C. All wells were then washed three times with 200 μl volumes of PBS containing 0.05% v/v Tween 20, prior to equilibration for 2 min with 0.01M Tris buffered 0.14M NaCl/0.002M CaCl2 at pH 8.0 (TC buffer), containing 4% w/v BSA and 0.05%/v Tween 20 (TCBT buffer). The wells were then emptied before adding to each one the following reagents. […] For background, non-specific, non calcium dependent, binding in the presence of EDTA: 5 μl radiolabelled SAP in TN and 45 μl 0.01M Tris buffered 0.14M NaCl at pH 8.0 containing 11.1 mM EDTA, 4.4% w/v BSA and 0.06% w/v Tween 20 (TEBT buffer) to provide final concentrations of EDTA, 10 mM; BSA, 4%; Tween 20, 0.05%. […] All wells were then incubated at room temperature for 2 h before being washed three times with 200 μl volumes of TCBT, allowed to dry for 1 h at room temperature, and bound radiolabelled SAP was then counted.
The capacity of the compounds tested to inhibit binding of SAP to meningococci is expressed as the percentage by which SAP binding was reduced compared to binding in the absence of any inhibitor (Table 1).

SAP [3] = target: T1, SAP; assay: Inhibition of binding of 125I radiolabelled SAP to native long chromatin immobilized in microtitre plates; parameters: 5 μl of radiolabelled SAP in TN; from tissue; settings: for Inhibition of binding of SAP to chromatin, in words: Table 2; for inhibition at 0.2 µM: compound 200 nM; for inhibition at 0.2 µM / inhibition at 2 µM / inhibition at 20 µM / inhibition at 200 µM / inhibition at 2000 µM: read-out: Percent inhibition of binding of radiolabelled SAP to immobilized native long chromatin; for inhibition at 2 µM: compound 2 μM; for inhibition at 20 µM: compound 20 μM; for inhibition at 200 µM: compound 200 μM
SAP [4] = target: T1, SAP; assay: Inhibition of binding of 125I radiolabelled SAP to influenza virus immobilized in microtitre plates; parameters: 5 μl of radiolabelled SAP in TN; from tissue; settings: for inhibition at 20 µM: compound 20 μM; for inhibition at 20 µM / inhibition at 200 µM / inhibition at 0.2 µM / inhibition at 2 µM / inhibition at 2000 µM: read-out: Percent inhibition of binding of radiolabelled SAP to immobilized influenza virus; for inhibition at 200 µM: compound 200 μM; for Inhibition of binding of SAP to immobilised influenza virus, in words: summary of Table 3; for inhibition at 0.2 µM: compound 200 nM; for inhibition at 2 µM: compound 2 μM; for inhibition at 2000 µM: compound 2 mM
Method: A concentrated suspension of purified influenza virus A/Shanghai/24/90 at 10 mg protein per ml in PBS was diluted 1:50 in PBS and then dispensed to polystyrene microtitre plates at 50 μl volumes per well, and left overnight at 4° C. All wells were then emptied before blocking by addition to each well of 200 μl of 2% w/v BSA in PBS and incubation at room temperature for 1 h. All wells were then washed three times with 200 μl volumes of PBS containing 0.05% v/v Tween 20, prior to equilibration for 2 min with 0.01M Tris buffered 0.14M NaCl/0.002M CaCl2 at pH 8.0 (TC buffer), containing 4% w/v BSA and 0.05% v/v Tween 20 (TCBT buffer). The wells were then emptied before adding to each one the following reagents. […] For background, non-specific, non calcium dependent, binding in the presence of EDTA: 5 μl radiolabelled SAP in TN and 45 μl 0.01M Tris buffered 0.14M NaCl at pH 8.0 containing 11.1 mM EDTA, 4.4% w/v BSA and 0.06% w/v Tween 20 (TEBT buffer) to provide final concentrations of EDTA, 10 mM; BSA, 4%; Tween 20, 0.05%. […] All wells were then incubated at room temperature for 2 h before being washed three times with 200 μl volumes of TCBT, allowed to dry for 1 h at room temperature, and bound radiolabelled SAP was then counted. The compounds tested in the experiment shown here were the same as those specified in Example B above.
The capacity of the compounds tested to inhibit binding of SAP to the immobilised influenza virus is expressed as the percentage by which SAP binding was reduced compared to binding in the absence of any inhibitor (Table 3).

SAP [5] = target: T1, SAP; assay: Surface plasmon resonance: calcium dependent binding of SAP to immobilised synthetic Aβ-42 amyloid fibrils
Description: Surface plasmon resonance (SPR) is a low throughput but powerfully informative method to identify compounds that are bound by, or themselves bind to SAP, either in a calcium dependent fashion or independently of calcium, for the purposes of the present invention. For example, low molecular weight compounds that inhibit binding of SAP to its macromolecular ligands, including target ligands relevant to the present invention, can be detected by their effect on the signal generated by fluid phase SAP binding to ligand immobilised on the solid phase (Example A). Furthermore, when SAP itself is immobilised on the solid phase in an SPR instrument, the interaction with it of test molecules provided in the fluid phase generates a signal that can be detected and quantified. Purified SAP immobilized within an SPR instrument gives a quantifiable signal when it is exposed to another molecule that forms a complex with the SAP, and this is distinct from the absence of such a signal if no complex is formed. […] Another low throughput but powerful direct method is isothermal calorimetry that measures the heat of interaction in solution between SAP and test compounds according to the present invention. The binding affinity can be measured precisely as a guide to potential efficacy. Typical results by this method for the dissociation constants, Kd, between SAP and various compounds are as follows:
Synthetic Aβ-42 amyloid fibrils (28) were covalently immobilised on the reactant surface of the Fisons IAsys surface plasmon resonance instrument, and then exposed to isolated SAP (32) in solution in Tris-buffered physiological saline in the absence of calcium (shown as TN/N in the Figures). No binding of SAP occurred and thus no signal was generated. Introduction of calcium allowed the SAP to bind specifically to the immobilised amyloid fibrils, generating a readily detectable signal (FIG. 1). […]

T1 sequence (P02743 20-223): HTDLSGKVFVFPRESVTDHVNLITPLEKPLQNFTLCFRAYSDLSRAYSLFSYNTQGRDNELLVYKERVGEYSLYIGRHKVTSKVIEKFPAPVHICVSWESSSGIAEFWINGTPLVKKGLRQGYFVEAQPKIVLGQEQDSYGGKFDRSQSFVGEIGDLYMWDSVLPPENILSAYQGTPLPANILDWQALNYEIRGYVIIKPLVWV

| Compound | pKd (SAP [1]) | inhibition at 20 µM (SAP [2]) | inhibition at 2000 µM (SAP [2]) | Inhibition of binding of SAP to meningococci, in words (SAP [2]) | Inhibition of binding of SAP to chromatin, in words (SAP [3]) | inhibition at 0.2 µM (SAP [3]) | inhibition at 2 µM (SAP [3]) | inhibition at 20 µM (SAP [3]) | inhibition at 200 µM (SAP [3]) | inhibition at 20 µM (SAP [4]) | inhibition at 200 µM (SAP [4]) | Inhibition of binding of SAP to immobilised influenza virus, in words (SAP [4]) | inhibition at 0.2 µM (SAP [2]) | inhibition at 2 µM (SAP [2]) | inhibition at 200 µM (SAP [2]) | inhibition at 2000 µM (SAP [3]; compound 2 mM) | inhibition at 0.2 µM (SAP [4]) | inhibition at 2 µM (SAP [4]) | inhibition at 2000 µM (SAP [4]) | further results |
| --- | --- | --- | --- | --- | --- | --- | --- | --- | --- | --- | --- | --- | --- | --- | --- | --- | --- | --- | --- | --- |
| CC(=O)N1CCC[C@@H]1C(=O)O [N-acetyl-D-proline] | 4.80 and 4.64 and 4.77 |  |  |  |  |  |  |  |  |  |  |  |  |  |  |  |  |  |  |  |
| C[N+](C)(C)CCOP(=O)([O-])O [Phosphocholine, reference compound] |  | 4% | 24% | virtually no effect | virtually no effect | 2% | 0% | 0% | 3% | 5% | 5% | virtually no effect |  |  |  |  |  |  |  | Kd in micromoles per liter (replicate measurements) (SAP [1]): No binding; inhibition at 2000 µM (SAP [3]): 19% |
| NCCOP(=O)(O)O [Phosphoethanolamine, reference compound] | 4.44 and 4.57 and 4.32 | 32% | 95% | inhibition at high concentration, but only modest effects when diluted | inhibition at high concentration, but only modest effects when diluted | 3% | 9% | 36% | 59% | 42% | 51% | inhibition at high concentration, but only modest effects when diluted | 7% | 18% | 41% | 94% | 1% | 8% | 69% |  |
| C[C@H](CS)C(=O)N1CCC[C@@H]1C(=O)O [Ro-15-3479, 1-[(S)-3-Mercapto-2-methylpropionyl]-D-proline] |  | 50% |  |  |  |  |  |  |  | 40% | 51% |  | 3% | 42% | 54% |  | 12% | 30% |  | Effect on SPR signal reflecting ligand binding by SAP (SAP [5]; 50 μmol/l, added after SAP had bound, regenerated surface (FIG. 3)): completely reversed; SPR signal on addition of calcium after SAP and compound (SAP [5]; 100 μmol/l, added before calcium (FIG. 2)): no signal; Effect on binding of SAP to immobilised amyloid fibrils and the corresponding SPR signal (SAP [5]; 500 μmol/l in TC buffer, added after SAP had bound (FIG. 1)): completely reversed the binding of SAP |
| O=C(O)[C@H]1CCCN1C(=O)COc1ccc(OCC(=O)N2CCC[C@@H]2C(=O)O)cc1 [Ro-64-2856, (R)-1-[[4-[2-[(R)-2-Carboxy-pyrrolidin-1-yl]-2-oxo-ethoxy]-phenoxy]-acetyl]-pyrrolidine-2-carboxylic acid] | 7.72 and 7.70 | 74% | 100% |  |  | 1% | 36% | 56% | 75% | 82% | 84% |  | 0% | 65% | 65% | 91% | 3% | 77% | 87% |  |
| O=C(O)[C@H]1CCCN1C(=O)Cc1ccc(CC(=O)N2CCC[C@@H]2C(=O)O)c2ccccc12 [Ro-64-5607, (R)-1-[[4-[2-[(R)-2-Carboxy-pyrrolidin-1-yl]-2-oxo-ethyl]-naphthalen-1-yl]-acetyl]-pyrrolidine-2-carboxylic acid] |  | 89% |  |  |  | 15% | 35% | 77% | 96% | 95% | 94% |  | 13% | 69% |  | 100% | 4% | 64% | 98% |  |
